Tests used:
U266 cells [1] = assay: Flow cytometry apoptosis (Annexin V-FITC/7-AAD); assay type: cell-based, human; conditions: 12 hours, EPED3 2 μM, Velcade 0.5 μM
Description: (§1) FIGS. 14A-14L show flowcytometry analyses of cell viability and cell cycle arrest under EPED3 and Velcade treatments. U266 cells were co-cultured without contact with human fetal bone mesenchymal cells. Cells were untreated (Control; FIGS. 14A, 14D, 14G, 14J) or exposed to […] (FIGS. 14B, 14E, 14H, 14K) or […] (FIGS. 14C, 14F, 14I, 14L) for 12 hours and then harvested. Pan-caspase inhibitor Z-VAD-FMK ([…]) was also added to co-cultures (FIGS. 14D-14F and FIGS. 14J-14L) to block caspase-dependent apoptosis and then analyzed for cell cycling arrest. Percent cells in G0+G1 and G2+M phases were measured by the peaks of DNA helix and are gated with each graph (FIGS. 14A-14F). Percent cells with fragmented DNA are indicated as c % in each graph. Cells were also analyzed for apoptotic status (FIGS. 14G-14L) using Coulter Annexin-V FITC/7-AAD kit. Untreated cells (Control; FIGS. 14G and 14J) were maintained at high viability (90%). Early apoptotic cells were gated at G4, and necrotic cells were gated at G2; percent cells in each population are indicated with each graph. The arrows indicate percent viable cells ingested EPED3, whose fluorescent property was captured at channel FL4 (FIGS. 14H, 14K).
Apoptosis was detected using the Annexin V-fluorescein isothiocyanate (FITC)/7-AAD kit (Beckman Coulter, Inc.). Myeloma cells were harvested from co-culture inserts and washed in PBS; 5×10^5 cells were incubated on ice with 100 μl of binding buffer (10 μl Annexin V-FITC and 20 μl of 7-AAD) for 15 minutes. Samples were analyzed using EPICS XL-MCL flowcytometer equipped with EXPO32 ADC software (Beckman Coulter, Inc.).
(§2) To investigate the effects of EPED3 on apoptosis and cell cycle arrest of myeloma cells, U266 cells were exposed to EPED3 (2 μM) or Velcade (0.5 μM) in co-culture without direct contact with fetal human bone mesenchymal cells. Twelve hours after treatment, cells were harvested for using flow cytometry to detect ongoing apoptosis and cell cycle arrest.

U266 cells [2] = assay: Flow cytometry cell cycle arrest (DNA-Prep); assay type: cell-based, human; conditions: 12 hours; EPED3 2 μM, Velcade 0.5 μM
Description: as §1
Cell cycle arrest was measured using DNA-Prep Coulter Reagents kit (Beckman Coulter, Inc., Miami, Fla.). Myeloma cells were harvested from co-culture inserts and washed in phosphate buffered saline (PBS); 5×10^5 cells were stained according to the manufacturer's instructions. Samples were analyzed using EPICS XL-MCL flowcytometer equipped with EXPO32 ADC software (Beckman Coulter, Inc.).
as §2
The cell cycle arrest analysis was simultaneously performed to examine DNA helix in U266 cells at 12 hours. […] Furthermore, 7.2% of the EPED3-treated population was in G2+M phase as opposed to 25.4% of the control and 18.9% of Velcade-treated populations in the G2+M phase (FIG. 14A-14C).

U266 cells [3] = assay type: cell-based, human; conditions: for disruption of mitochondria (MitoTracker Red CMXRos): 6 hours, EPED3 2 mM, Velcade 0.5 mM
Text: FIGS. 15A-15C show fluorescent images of EPED3 endoplasmic distribution and induction of apoptosis, which was also detected by Western Blot. […] For analysis by fluorescence microscopy, nuclei were stained with DAPI (blue), mitochondria with MitoTracker Red CMXRos (red), and cytochrome c with FITC-conjugated secondary antibodies (green); EPED3 is excited by ultraviolet light (wavelength<500 nm) and was visualized as gold.
The appearance of large cytoplasmic vacuoles (arrows) and diminished mitochondria in cells treated with EPED3 indicate ongoing apoptosis. […] Cytochrome c disassociation with mitochondria also indicates initiation of the intrinsic apoptotic pathway. […] Protein extracts ([…]) were analyzed by Western blotting, using goat anti-human Caspase-3, -8, and -9 polyclonal antibodies. […] In contrast, both EPED3 and Velcade treatments initiated the intrinsic pathway, which releases cytochrome c to induce rapid cleavage of Caspase-9 into its activated form. The consequent Caspase-3 activation indicates activity of the intracellular proteolytic cascade. Abbreviations: C=Medium control, E=EPED3, V=Velcade.
Myeloma cells were co-cultured with human fetal bone mesenchymal cells in the TC inserts. The cells were treated with individual antimyeloma agents at desired concentrations. An aliquot containing 10^6 cells was transferred to 24-well plate and mixed with MitoTracker Red CMXRos (Invitrogen) at 50 nM final concentration. After a 15-minute incubation, cells were collected and washed with PBS and resuspended at 5×10^5 cells/ml for slide adhesion by the Cytospinning method. […]
Autofluorescence of EPED3 was used to visually examine its effects on myeloma cells. […] Cells that ingested EPED3 were, therefore, discernible by the characteristic golden light emitted under fluorescence microscopy. […]
To further investigate effects of EPED3 on mitochondrial integrity and cytochrome c, treated U266 cells were immunohistochemically analyzed.

[4] = tested on: myeloma cell lines chronically exposed to Velcade; assay: Myeloma cell lines with acquired Velcade tolerance; assay type: cell-based
[5] = co-culture without direct contact
[6] = with pan-caspase inhibitor Z-VAD-FMK

| SMILES | apoptotic cells (U266 cells [1]; [5]) [%] | necrotic cells (U266 cells [1]; [5]) [%] | apoptotic cells (U266 cells [1]; [6]) [%] | necrotic cells (U266 cells [1]; [6]) [%] | population in G0+G1 phase (U266 cells [2]) [%] | population in G2+M phase (U266 cells [2]) [%] | disruption of mitochondria (MitoTracker Red CMXRos) (U266 cells [3]) | tolerance level after chronic exposure ([4]; in vitro chronic exposure to Velcade, several myeloma cell lines) [nM] | cell uptake and distribution (autofluorescence) (U266 cells [3]) | cross-tolerance of Velcade-tolerant cells ([4]; data not shown) |
| --- | --- | --- | --- | --- | --- | --- | --- | --- | --- | --- |
| CC(C)C[C@H](NC(=O)[C@H](Cc1ccccc1)NC(=O)c1cnccn1)B(O)O [Velcade, bortezomib, reference compound] | 20.6 | 31.3 | 25 | 2.8 | 59.8 | 18.9 | mitochondrial disruption was not seen | > 5 | – | – |
| Cc1c2ccncc2c(C)c2c1[nH]c1ccc(OCCN(C)C)cc12 [NSC 338258, ellipticine, 9-dimethyl amino-ethoxy-] | 36 | 9.7 | 8.9 | 18.9 | 67.5 | 7.2 | Disruption of mitochondria | – | instantly permeated the cells and distributed throughout the cytosol | such Velcade-tolerance did not apply |
